One may read the IC50 as the concentration needed to halve the response being measured. Read a high IC50 as weaker potency in that assay.

This experiment in a line: Inhibition of rat intestinal maltase.

The molecule `O[C@H]1[C@H](O)[C@@H](O)CN2C[C@@H](O)[C@@H](O)[C@H]12` [(-)-uniflorine A] returned an IC50 of 12 µM. Turning to `O[C@H]1[C@H]2[C@H](O)[C@H](O)CN2[C@H](O)C[C@H]1O` [uniflorine B], the IC50 was 4 µM.

Source of the values: BindingDB's records for doi:10.1021/np900435d (University of Florence, 2009).
